US20260207626A1, “SYNTHETIC TRITERPENOIDS AND COMPOSITIONS THEREOF IN WEIGHT MANAGEMENT, SKELETAL MUSCLE FUNCTION, AND APPETITE SUPPRESSION” (The Board of Regents of the University of Texas System, priority 2022, published 2026)
“Also recorded” adds a separate entry of the source.

Columns and labels:
N171-82Q mice = conditions: cited from earlier work
MCP-1 = experiment: Quantitative RT-PCR of LPS-induced MCP-1 mRNA in L6-GLUT4myc myotubes; type: cell-based, rat; conditions: 500 nM CDDO-EA 1 hr then 100 ng/ml LPS 1 hr
Procedure: (§1) Quantitative RT-PCR: L6-GLUT4myc myoblasts (4×10^4 cell/ml, 2 ml/well) were seeded on a 6-well plate and differentiated into myo-tubes with differentiation medium for 7 days. Myotubes were pre-treated with CDDO-EA 500 nM for 1 h followed by LPS 100 ng/ml (E. coli O111: B4, Sigma Aldrich) treatment for 1 h. RNA was isolated from treated myotubes using TRIzol reagent (Ambion) according to the manufacturer's instructions. Validated RT-PCR primers specific for rat TNF-α (Assay ID: Rn99999017_m1) and rat MCP-1 (Assay ID: Rn00580555_m1), or rat GAPDH (Assay ID: Rn99999916_s1) were used to quantify mRNA levels using TaqMan RNA-to-CT 1-Step Kit (Thermo Fisher Scientific), Real-time PCR was carried out using an AB7900HT Fast Real-Time PCR System (Applied Biosystems), and MCP-1 and TNF-α levels were calculated using the ΔΔCT method according to the manufacturer's instructions.

GLUT4 = experiment: Colorimetric assay of cell surface GLUT4 in L6GLUT4myc myotubes (preliminary data); type: cell-based, rat; conditions: FIG. 30
Procedure: Is CDDO-EA-mediated GLUT4 translocation dependent on AMPK activation? The catalytic subunit alpha-1 (α1) of AMPK will be KD by siRNA. Cells will be treated with CDDO-EA (500 nM, 1 hour), insulin ([…] for 15 min), or insulin and CDDO-EA to determine if there is a synergistic effect on GLUT4 translocation. Also, cells will be treated with the AMPK activator, 5-aminoimidazole-4-carboxamide ribonucleoside (AICAR, 1 mM, 40 minutes), as a positive control. We will use a colorimetric assay to quantitatively measure the levels of cell surface GLUT4 in 3T3-L1 adipocytes and L6GLUT4myc myotubes^37. […] GLUT4 translocation will be detected via immunofluorescence. Subcellular protein fractionation will be conducted to detect GLUT4 in the sarcolemma for myotubes and plasma membrane for adipocytes and GLUT2 in the plasma membrane of hepatocytes via Western blotting. GLUT2 will be measured in hepatocytes because GLUT2 is the most abundant glucose transporter in hepatocytes^38. To measure glucose uptake, a non-radioactive, plate-based bioluminescent assay (Glucose Uptake-Glo, Promega) will be performed. Using Glucose Uptake-Glo, insulin induces glucose uptake in L6GLUT4my myotubes. Phosphorylation of AMPK at Thr^172 and phosphorylation of ACC at Ser^79 indicates activation of the AMPK pathway. Thus, phosphorylation of AMPK Thr^172 and ACC Ser^79 will be shown through Western blotting. […]

TNF-α = experiment: Quantitative RT-PCR of LPS-induced TNF-α mRNA in L6-GLUT4myc myotubes; type: cell-based, rat; conditions: 500 nM CDDO-EA 1 hr then 100 ng/ml LPS 1 hr
Procedure: as §1

p38 = experiment: Western blot of p38 phosphorylation in L6-GLUT4myc myotubes; type: cell-based, rat; conditions: CDDO-EA treated myotubes vs control
Procedure: FIG. 16B. The protein p38 has been reported to be involved in insulin-independent glucose metabolism. FIG. 16B represents results from a study performed to illustrate that CDDO-EA activated phosphorylation of p38. Immunoblotting was performed to measure the protein content of phosphorylated p38 and total p38 protein. Protein content of actin is used as a control to confirm protein loading is the same across the lanes of the immunoblot. […] The first row of horizontal bands is the Control group (bands #1, #2, and #3) content of phosphorylated p38 (P-p38) with no CDDO-EA treatment.
(§2) Western blotting and subcellular fractionation: L6-GLUT4myc myoblasts (4×10^4 cells/ml, 2 ml/well) were seeded onto 6-well dishes and differentiated with differentiation medium for 7 days. […] Protein concentrations were determined using the Pierce BCA Protein Assay (Thermo Fisher Scientific), and equal amounts of protein were separated by electrophoresis and subsequently transferred to nitrocellulose membranes. Membranes were analyzed using the following antibodies from Cell Signaling Technology: phosphorylated NF-κB (Ser536) (93 H1, cat #3033,1:1000), phosphorylated IKB-α (Ser32) (14D4, cat #2859,1:1000), IKB-α (44D4, cat #4812, 1:1000), phosphorylated p38 (Thr180/Tyr182) (cat #9211, 1:1000), p38 (cat #9212, 1:1000). […] Bands were quantitated using ImageQuant (GE Healthcare). […]

NF-κB p65 (Ser536) = experiment: Western blot of LPS-induced NF-κB phosphorylation in L6-GLUT4myc myotubes; type: cell-based, rat; conditions: 500 nM CDDO-EA 1 hr then 100 ng/ml LPS 1 hr
From the text: To examine the anti-inflammatory properties of CDDO-EA in skeletal muscle cells, CDDO-EA was examined for its effect on nuclear factor-kappa B (NF-κB) activity in L6-GLUT4myc muscle cells, in the context of LPS-mediated inflammatory responses in L6-GLUT4myc muscle cells. All experiments were independently repeated one to four times and done in duplicate or triplicate, and data were statistically analyzed by One-Way ANOVA or unpaired t-test, two tailed.
Cells were studied with vehicle alone [0.125% dimethyl sulfoxide (DMSO)] and LPS with and without CDDO-EA. […]
as §2

CCNC(=O)[C@]12CCC(C)(C)C[C@H]1C1C(=O)C=C3[C@@]4(C)C=C(C#N)C(=O)C(C)(C)[C@@H]4CC[C@@]3(C)[C@]1(C)CC2 (stereo partly drawn) [CDDO-EA, (4aS,6aR,6bS,8aR,12aS,14bS)-11-cyano-N-ethyl-2,2,6a,6b,9,9,12a-heptamethyl-10,14-dioxo-1,3,4,5,6,6a,6b, 7,8,8a,9,10,12a, 14,14a, 14b-hexadecahydropicene-4a (2H)-carboxamide]
muscle strength and balance, survival (N171-82Q mice; N171-82Q mice): improved muscle strength and balance and increased survival | accumulation in the skeletal muscle (N171-82Q mice; Stack et al. (2010)): accumulated in the skeletal muscle | oxidative stress in skeletal muscle (N171-82Q mice; Stack et al. (2010)): oxidative stress in skeletal muscle was reduced | LPS-induced MCP-1 mRNA expression (MCP-1): lowered LPS-induced mRNA levels of TNF-α and MCP-1; also recorded: blocked the mRNA expression of LPS-induced TNF-α and MCP-1; also recorded: reduced LPS-induced TNF-α and MCP-1 gene expression levels; also recorded: inhibits LPS-inducted TNF-α and MCP-1 gene expression | GLUT4 translocation to the cell surface (colorimetry assay) (GLUT4): induce GLUT4 translocation to the cell surface | LPS-induced TNF-α mRNA expression (TNF-α): lowered LPS-induced mRNA levels of TNF-α and MCP-1; also recorded: blocked the mRNA expression of LPS-induced TNF-α and MCP-1; also recorded: reduced LPS-induced TNF-α and MCP-1 gene expression levels; also recorded: inhibits LPS-inducted TNF-α and MCP-1 gene expression | p38 phosphorylation (normalized to total p38, percent over control) (p38): effective for inducing p38 phosphorylation; also recorded: two-fold increase in activation of p38 phosphorylation; also recorded: activates GLUT4 translocation to cell membrane and p38 phosphorylation | total p38 protein expression (p38): had no effect on p38 protein expression | LPS-induced NF-κB phosphorylation (NF-κB p65 (Ser536)): decreased LPS-induced NF-κB and nuclear factor of kappa light polypeptide gene enhancer in B-cells inhibitor-alpha (IκB) phosphorylation; also recorded: inhibited LPS-induced NF-κB phosphorylation; also recorded: inhibits lipopolysaccharide (LPS)-induced NF-κB and Inhibitory kappa B alpha (IκB-α) phosphorylation
